Where only a bound is given, the exact number is not on record here.

This assay addresses farnesyl protein transferase. Put plainly: Inhibition of farnesyl protein transferase (test of WO 95/10514). As to conditions: percent inhibition relative to DMSO vehicle control, IC50 estimated. The format is biochemical. The source says:
The compounds of the invention can be tested by standard methods, for example by those published in published PCT application WO 95/10514 published Apr. 20, 1995 (starting at page 61), the disclosure of which is hereby incorporated herein by reference. Particularly relevant assays and studies include In vitro enzyme assays, Cell-Based Assays, Cell Mat Assays, and In Vivo Anti-Tumor Studies.
Such Assays and Studies indicate that compounds of the Formula I above are selective inhibitors of Ras-FPT and can be used as anti-tumor agents. The following Table presents IC50 values obtained in the test for Inhibition of farnesyl protein transferase, reported in published PCT application WO 95/10514. Percent inhibition was calculated relative to the DMSO vehicle control, and an IC50 value was estimated.
For orientation: IC50 means the concentration that gives 50% inhibition. In the case of `O=C(CC1CCNCC1)N1CCN(C2c3ccc(Cl)cc3SCc3cccnc32)CC1` (centres unmarked) [Example 12A, 4-(8-Chloro-5,11-dihydro-[1]benzothiepino[4,3-b]pyridin-11-yl)-1-(4-piperidinyl-acetyl)piperazine], the IC50 was 1100 nM.

Turning to `N#CN=C(NCc1ccc[n+]([O-])c1)N1CCN(C2c3ccc(Cl)cc3SCc3cccnc32)CC1` (centres unmarked) [Example 21, 4-(8-Chloro-5,11-dihydro[1]benzothiepino[4,3-b]pyridin-11-yl)-N-cyano-N'-(3-pyridinylmethyl)-1-piperazine-carboximidamide N1-oxide], the IC50 was 140 nM.

As for `O=C(Cc1cc[n+]([O-])cc1)N1CCN(C2c3ccc(Cl)cc3OCc3cccnc32)CC1` (centres unmarked) [Example 1, 4-(8-Chloro-5,11-dihydro[1]benzoxepino[4.3-b]pyridin-11-yl)-1-(4-pyridine-acetyl)-piperazine N1-oxide], the IC50 was 1280 nM.

With `N#CN=C(NCc1ccc[n+]([O-])c1)N1CCC(=C2c3ccc(Cl)cc3SCc3cccnc32)CC1` [Example 24], the IC50 was 38 nM.

As for `CC(C)(C)OC(=O)N1CCC(CC(=O)N2CCC(=C3c4ccc(Cl)cc4SCc4cccnc43)CC2)CC1` [Example 11B, 1,1 -Dimethylethyl 4-[2-[4-(8-chloro-5,11-dihydro-[1]benzothiepino[4,3-b]pyridin-11-ylidene)-1-piperidinyl]2-oxoethyl]-1-piperidine-carboxylate], the IC50 was 3200 nM.

In the case of `O=C(Cc1ccncc1)N1CCN(C2c3ccc(Cl)cc3SCc3cccnc32)CC1` (centres unmarked) [Example 8, 4-(8-Chloro-5,11-dihydro-[1]benzothiepino[4,3-b]pyridin-11-yl)-1-(4-pyridinyl-acetyl)piperazine], the IC50 was 320 nM.

In the case of `O=C(Cc1ccccc1[N+](=O)[O-])C(=O)N1CCN(C2c3ccc(Cl)cc3SCc3cccnc32)CC1` (centres unmarked) [Example 13], the IC50 was 3800 nM.

For `CSC(=NC#N)N1CCC(=C2c3ccc(Cl)cc3OCc3cccnc32)CC1` [Example 2], the 50% inhibitory concentration (IC50) is over 140 nM.

As for `CN1Cc2cccnc2C(N2CCN(C(=O)CC3CCN(C(=O)OC(C)(C)C)CC3)CC2)c2ccc(Cl)cc21` (centres unmarked) [Example 38, 1,1-Dimethylethyl 4-[2-[4-(8-chloro-6,11-dihydro-6-methyl-5H-pyrido[3,2-c][1]benzazepin-11-yl)-1-piperazinyl]2-oxoethyl]-1-piperidine-carboxylate], the IC50 was over 3600 nM.

As for `O=C(Cc1cc[n+]([O-])cc1)N1CCN(C2c3ccc(Cl)cc3[S+]([O-])Cc3cccnc32)CC1` (centres unmarked) [Example 17A (sulfoxide), 4-(8-Chloro-5,11-dihydro-[1]benzothiepino[4,3-b]pyridin-11-yl)-1-(4-pyridine-acetyl)piperazine N1,6,-dioxide], the IC50 was over 4000 nM.

With `O=C(Cc1cc[n+]([O-])cc1)N1CCN(C2c3ccc(Cl)cc3S(=O)(=O)Cc3cccnc32)CC1` (centres unmarked) [Example 17A (sulfone), 4-(8-Chloro-5,11-dihydro-[1]benzothiepino[4,3-b]pyridin-11-yl)-1-(4-pyridine-acetyl)piperazine N1,6,6-trioxide], the IC50 was 3400 nM.

For `O=C(Cc1cc[n+]([O-])cc1)N1CCC(=C2c3ccc(Cl)cc3OCc3cc(Br)cnc32)CC1` [Example 4, 4-(3-Bromo-8-chloro-5,11-dihydro[1]benzoxepino[4,3-b]pyridin-11-ylidene)-1-(4-pyridine-acetyl)piperidine N1-oxide], the IC50 was 110 nM.

Regarding `CN1CCC(CC(=O)N2CCC(=C3c4ccc(Cl)cc4SCc4cccnc43)CC2)CC1` [Example 26, 4-(8-Chloro-5,11-dihydro[1]benzothiepino[4,3-b]pyridin-11-ylidene)-1-(1-methyl-4-piperidine-acetyl)-piperidine], the half-maximal inhibitory concentration (IC50) is 1790 nM.

`O=C(Cc1ccncc1)N1CCN(C2c3ccc(Cl)cc3S(=O)(=O)Cc3cccnc32)CC1` (centres unmarked) [Example 16A, 4-(8-Chloro-5,11-dihydro-[1]benzothiepino[4,3-b]pyridin-11-yl)-1-(4-pyridine-acetyl)piperazine 6,6-dioxide]: the IC50 was 1000 nM.

The values above are taken from patent publication US6130229A, “Tricyclic compounds having activity as RAS-FPT inhibitors” (Schering Corporation, priority 1997, dated 2000).
